# Data from patent US20240262866A1, “METHOD FOR PREPARING ANIDULAFUNGIN DERIVATIVE” (Shanghai Senhui Medicine Co., Ltd., priority 2021, published 2024).
# Where two headings read alike, the source gives them in different places. *1 amine or outer side, *2 acyl side, *3 side chain or, on linkers, in order; H or OH if unused. Where a SMILES comes first, the peptide text is derived from it. Bridges are numbered along the chain shown (N, C = ends). [ ]: non-standard residue; d: D form. The star is where a group is joined. pTerphenylCO(4''-OnC5H11) = CCCCCOc1ccc(-c2ccc(-c3ccc(C(=O)*)cc3)cc2)cc1; Orn(4R-OH,5R-OH) = O=C([C@H](C[C@@H](O)[C@@H](O)N[*:3])N[*:1])[*:2]; hTyr(3S-OH,4S-OH) = N[C@H](C(=O)O)[C@H](O)[C@@H](O)c1ccc(O)cc1; Pro(3S-OH,4S-Me) = C[C@H]1CN[C@H](C(=O)O)[C@H]1O; Hyp = O=C(O)[C@@H]1C[C@@H](O)CN1
# Tests used:
# [1] = system: Aspergillus flavus ATCC 28539; experiment: MEC assay (CLSI M38-A2), Aspergillus flavus ATCC 28539; assay type: cell-based; conditions: first batch; 28° C., 21-26 h
# Description: (§1) After a test compound was serially diluted, an MIC (minimum inhibitory concentration) assay was performed on the standard Candida strain and an MEC (minimum effective concentration) assay on the standard Aspergillus strain. The MIC assay was performed according to the guidelines of the Clinical and Laboratory Standards Institute (CLSI M27-A3) and the MEC assay according to the guidelines of the Clinical and Laboratory Standards Institute (CLSI M38-A2).
# Aspergillus was passaged onto an SDA plate and cultured at 35° C. for 48 h to 7 d to induce sporulation. Colonies on the plate were covered with about 1 mL of 0.85% normal saline or sterile water (polysorbate 20 was added at a final concentration of 0.1%-0.01%). The medium was gently wiped on its surface with a tip or a sterile cotton swab (be careful not to break the medium), and the spore hyphae suspension was transferred to a sterile tube and let stand for 3-5 min so that the heavy particles settled. The homogeneous upper layer of the suspension was transferred to a new sterile tube, which was then sealed and vortexed for 15 s (be careful as the suspension may produce an aerosol when the cover is removed). The concentration of the suspension was adjusted until an OD value of 0.09-0.13 was achieved using a spectrophotometer at 530 nm. The suspension was 50-fold diluted with 1×RPMI 1640. 100 μL of sample was added to each well of the 96-well plate within 2 h after dilution (the final spore concentration in the susceptibility testing plate was at 0.4×10^4 to 5×10^4 CFU/mL).
# Colony counting: The suspension diluted with RPMI 1640 was further diluted 10-fold, and 10 μL of the dilution was applied to an SDA plate, cultured at 28° C., and observed every day; colonies were immediately counted upon being visible to the naked eye.
# (§2) For echinocandin drugs, Aspergillus was incubated at 28° C. for 21-26 h, and then the MEC results were read.
# (§3) • Yeast-type fungi: A disposable sealing film was applied to the 96-well plate, and the mixture was well mixed by shaking. Observation was performed through a plate reader with the naked eye. Comparisons were made to the growth control, and the minimum compound concentration corresponding to ≥50% growth inhibition was defined as MIC. Pictures were taken and saved using an automatic plate reader. • Aspergillus: For echinocandin drugs, comparisons were made to the growth control under a plate reader, and the minimum drug concentration that could cause the hyphae to form small, round, compact hyphal particles was defined as MEC. For accurate determination of MEC values, the plate must not be vortexed before reading.
# [2] = system: Candida parapsilosis ATCC 22019; experiment: MIC assay (CLSI M27-A3), Candida parapsilosis ATCC 22019; assay type: cell-based; conditions: first batch; 24 h, ≥50% growth inhibition; quality control strain
# Description: as §1
# (§4) The frozen strain was passaged at least twice, and a single colony was picked and resuspended in normal saline or sterile water in a tube. […]
# as §2
# as §3, with “Comparisons were made to the growth control, and the minimum compound concentration corresponding to ≥50% growth inhibition was defined as MIC.” left out
# [3] = system: Candida albicans ATCC 90029; experiment: MIC assay (CLSI M27-A3), Candida albicans ATCC 90029; assay type: cell-based; conditions: first batch; 24 h, ≥50% growth inhibition
# Description: as §1, §4, §2
# as §3, with “Comparisons were made to the growth control, and the minimum compound concentration corresponding to ≥50% growth inhibition was defined as MIC.” left out
# [4] = system: Candida tropicalis ATCC 750; experiment: MIC assay (CLSI M27-A3), Candida tropicalis ATCC 750; assay type: cell-based; conditions: first batch; 24 h, ≥50% growth inhibition
# Description: as §1, §4, §2
# as §3, with “Comparisons were made to the growth control, and the minimum compound concentration corresponding to ≥50% growth inhibition was defined as MIC.” left out
# [5] = system: Candida glabrata ATCC 15126; experiment: MIC assay (CLSI M27-A3), Candida glabrata ATCC 15126; assay type: cell-based; conditions: first batch; 24 h, ≥50% growth inhibition
# Description: as §1, §4, §2
# as §3, with “Comparisons were made to the growth control, and the minimum compound concentration corresponding to ≥50% growth inhibition was defined as MIC.” left out
# [6] = system: Meyerozyma guilliermondii ATCC 6260; experiment: MIC assay (CLSI M27-A3), Meyerozyma guilliermondii ATCC 6260; assay type: cell-based; conditions: first batch; 24 h, ≥50% growth inhibition
# Description: as §1, §4, §2
# as §3, with “Comparisons were made to the growth control, and the minimum compound concentration corresponding to ≥50% growth inhibition was defined as MIC.” left out
# Candida krusei ATCC 6258 = experiment: MIC assay (CLSI M27-A3), Candida krusei ATCC 6258; assay type: cell-based; conditions: first batch; 24 h, ≥50% growth inhibition; quality control strain
# Description: as §1, §4, §2
# as §3, with “Comparisons were made to the growth control, and the minimum compound concentration corresponding to ≥50% growth inhibition was defined as MIC.” left out
# [7] = system: Candida albicans (azole drug-resistant strain) R357; experiment: MIC assay (CLSI M27-A3), Candida albicans azole drug-resistant strain R357; assay type: cell-based; conditions: second batch; 24 h
# Description: as §1, §4, §2
# as §3, with “Comparisons were made to the growth control, and the minimum compound concentration corresponding to ≥50% growth inhibition was defined as MIC.” left out
# [8] = system: Candida glabrata ATCC 36583; experiment: MIC assay (CLSI M27-A3), Candida glabrata ATCC 36583; assay type: cell-based; conditions: second batch; 24 h
# Description: as §1, §4, §2
# as §3, with “Comparisons were made to the growth control, and the minimum compound concentration corresponding to ≥50% growth inhibition was defined as MIC.” left out
# [9] = system: Candida tropicalis (amphotericin-resistant strain) ATCC 200956; experiment: MIC assay (CLSI M27-A3), Candida tropicalis amphotericin-resistant strain ATCC 200956; assay type: cell-based; conditions: second batch; 24 h
# Description: as §1, §4, §2
# as §3, with “Comparisons were made to the growth control, and the minimum compound concentration corresponding to ≥50% growth inhibition was defined as MIC.” left out
# [10] = system: Candida albicans (azole drug-resistant strain) R358; experiment: MIC assay (CLSI M27-A3), Candida albicans azole drug-resistant strain R358; assay type: cell-based; conditions: second batch; 24 h
# Description: as §1, §4, §2
# as §3, with “Comparisons were made to the growth control, and the minimum compound concentration corresponding to ≥50% growth inhibition was defined as MIC.” left out
# SD rats = experiment: General state observation after single intravenous injection; assay type: in vivo; conditions: 10 mg/kg single intravenous injection, day of administration
# Description: (§5) 12 SD rats were divided into 2 groups of 6 (half are male and half female). […] The body weights were measured once before administration. Administration was performed by single intravenous injection for 20 min per animal. PK measurement was performed once before administration and 5 min, 30 min, 1 h, 4 h, 8 h, 24 h, 48 h, 72 h and 96 h after administration. A histamine assay was performed once before administration and 30 min, 4 h, 8 h and 24 h after administration.
# [11] = system: Candida albicans ATCC 44858; experiment: MIC assay (CLSI M27-A3), Candida albicans ATCC 44858; assay type: cell-based; conditions: second batch; 24 h
# Description: as §1, §4, §2
# as §3, with “Comparisons were made to the growth control, and the minimum compound concentration corresponding to ≥50% growth inhibition was defined as MIC.” left out
# [12] = system: Candida albicans ATCC 90028; experiment: MIC assay (CLSI M27-A3), Candida albicans ATCC 90028; assay type: cell-based; conditions: second batch
# Description: as §1, §4, §2
# as §3, with “Comparisons were made to the growth control, and the minimum compound concentration corresponding to ≥50% growth inhibition was defined as MIC.” left out
# plasma histamine = experiment: Plasma histamine assay after single intravenous injection; assay type: in vivo, SD rats
# Description: as §5
# [13] = Pharmacokinetic study after single intravenous injection; assay type: in vivo, SD rats; conditions: Sprague-Dawley, rat, plasma, 10 mg/kg i.v.; for AUC(0-t): read-out: AUC0-96; for Vd: read-out: VdSS
# Description: as §5
compound,measurement,setting,value
"CCCCCOc1ccc(-c2ccc(-c3ccc(C(=O)N[C@H]4C[C@@H](O)[C@@H](O)NC(=O)[C@@H]5[C@@H](O)[C@@H](C)CN5C(=O)[C@H]([C@@H](C)O)NC(=O)[C@H]([C@H](O)[C@@H](O)c5ccc(O)cc5)NC(=O)[C@@H]5C[C@@H](O)CN5C(=O)[C@H]([C@@H](C)O)NC4=O)cc3)cc2)cc1 [Anidulafungin] ({pTerphenylCO(4''-OnC5H11)}-[Orn(4R-OH,5R-OH)]T[Hyp][hTyr(3S-OH,4S-OH)]T[Pro(3S-OH,4S-Me)]; lactam 1-C)",MEC Aspergillus flavus ATCC 28539,[1],0.031 µg/mL
Caspofungin acetate,MIC Candida parapsilosis ATCC 22019,[2],1 µg/mL
same,MIC Candida albicans ATCC 90029,[3],0.063 µg/mL
same,MIC Candida tropicalis ATCC 750,[4],0.016 µg/mL
same,MIC Candida glabrata ATCC 15126,[5],0.25 µg/mL
same,MIC Meyerozyma guilliermondii ATCC 6260,[6],1 µg/mL
same,MEC Aspergillus flavus ATCC 28539,[1],0.031 µg/mL
same,MIC Candida krusei ATCC 6258,Candida krusei ATCC 6258,1 µg/mL
Rezafungin acetate,MIC Candida parapsilosis ATCC 22019,[2],2 µg/mL
same,MIC Candida albicans (azole drug-resistant strain) R357,[7],0.25 µg/mL
same,MIC Candida glabrata ATCC 36583,[8],0.25 µg/mL
same,MIC Candida albicans ATCC 90029,[3],0.125 µg/mL
same,MIC Candida tropicalis ATCC 750,[4],0.016 µg/mL
same,MIC Candida tropicalis (amphotericin-resistant strain) ATCC 200956,[9],0.25 µg/mL
same,MIC Candida albicans (azole drug-resistant strain) R358,[10],0.25 µg/mL
same,MIC Candida glabrata ATCC 15126,[5],0.125 µg/mL
same,MIC Meyerozyma guilliermondii ATCC 6260,[6],2 µg/mL
same,general state observation,SD rats,transient slight decrease in activity occurred in 2 females
same,MEC Aspergillus flavus ATCC 28539,[1],0.031 µg/mL
same,MIC Candida krusei ATCC 6258,Candida krusei ATCC 6258,0.25 µg/mL
same,MIC Candida albicans ATCC 44858,[11],0.25 µg/mL
same,MIC Candida albicans ATCC 90028,[12]; 24 h,0.25 µg/mL
same,MIC Candida albicans + 50% human serum ATCC 90028,[12]; + 50% human serum,0.25 µg/mL
same,fold higher mean plasma histamine concentration than group 1,"plasma histamine; 30 min after administration, 10 mg/kg i.v., p=0.046",4.5 times
CCCCCOc1ccc(-c2ccc(-c3ccc(C(=O)N[C@H]4C[C@@H](O)[C@@H](OC[C@H]5CCC[N+]5(C)C)NC(=O)[C@@H]5[C@@H](O)[C@@H](C)CN5C(=O)[C@H]([C@@H](C)O)NC(=O)[C@H]([C@H](O)[C@@H](O)c5ccc(O)cc5)NC(=O)[C@@H]5C[C@@H](O)CN5C(=O)[C@H]([C@@H](C)O)NC4=O)cc3)cc2)cc1 [Compound of formula (I)],MEC Aspergillus flavus ATCC 28539,[1],0.031 µg/mL
same,AUC(0-inf),[13]; female SD rats,195 µg·h/mL
same,Cmax,[13]; female SD rats,9300 ng/mL
same,clearance,[13]; female SD rats,0.9 mL/min/kg
same,half-life,[13]; female SD rats,25.5 h
same,AUC(0-t),[13]; female SD rats,180 µg·h/mL
same,Vd,[13]; female SD rats,1.8 L/kg
same,AUC(0-inf),[13]; male SD rats,191 µg·h/mL
same,Cmax,[13]; male SD rats,8000 ng/mL
same,clearance,[13]; male SD rats,0.9 mL/min/kg
same,half-life,[13]; male SD rats,27.7 h
same,AUC(0-t),[13]; male SD rats,174 µg·h/mL
same,Vd,[13]; male SD rats,1.9 L/kg
same,ability to induce increases in the histamine level in rats,"plasma histamine; same dose (10 mg/kg) i.v., compared with rezafungin acetate",significantly lower
